Reference: patent publication US7851436B2, “Inhibition of migration and induction of cell death by the type II collagen amino propeptides” (Washington University, priority 2007, dated 2010)
Entries after “also recorded” stand apart in the source; their conditions may differ.

Assays:
siRNA-treated Ch-1 cells = test: Cell death in integrin αV siRNA-treated Ch-1 cells; assay type: cell-based, human; settings: 0.8 μM, serum-free medium, 24 hrs
Experimental: (§1) Detection of Cell Death. Cells were cultured to confluence in a 24-well plate pre-coated with type I collagen, fibronectin (Sigma), and ECM Matrigel (Becton Dickinson). Proteins in serum-free medium were added to the cells. Cells were monitored by light microscopy and images were digitally photographed using a Q capture Retiga 2000R camera. Quantification of cells remaining in the well was performed by washing with PBS for three times, fixing with 4% paraformaldehyde. The cells per field (×400) were counted for three field per well (3 wells per measurement). The mean number and standard deviation (SD) were calculated.
SiRNA Interference. Ch-1 cells were grown to 60-80% confluence in 6 well plates in Opti-Mem medium (Invitrogen) without antibiotics and serum. A reported method (6) is used in the design of siRNAs, sense and antisense oligonucleotides. The final concentration of oligonucleotides was 0.05 μM. Transfection was performed using a lipofectamine kit (InVitrogen). Half of the wells were stimulated with 200 ng/ml PMA (phorbol 12-myristate 13-acetate) after 4 hours incubation with oligonucleotides. Total RNA was collected via the TriZol method after incubation for 44 hours. 1 μg of total RNA was reverse transcribed with Superscript RT II in a 40 μl volume. […] Bands were quantified with Image Quant software.

HUVEC cells = test: HUVEC cell death; assay type: cell-based, human
Experimental: FIG. 6 depicts photographs and graphs showing that PIIBNP inhibits angiogenesis. […] Quantification of tube formation was calculated based on branch points per field of view (FIG. 6C) for each treatment ranging from 0.1 μM to 10 μM of PIIBNP. […] GST (▴) and PIIANP (●) had no effect on the cells.
As a second test for angiogenesis, we tested the ability of PIIBNP to inhibit outgrowth of endogenous endothelial cells from freshly isolated rat aorta. […] In order to determine whether PIIBNP caused endothelial cell death, the number of HUVEC cells present after incubation with PIIBNP was determined (FIGS. 6E and 8). Tube formation was inhibited by 50% with 0.1 μM PIIBNP, with no cell death. […] Consequently, PIIBNP can inhibit angiogenesis in a cell line and in endogenous endothelial cells mediated by integrins αVβ3 and αVβ5.

[1] = test system: normal human articular chondrocytes; test: Cell survival assay in normal human articular chondrocytes; assay type: cell-based; settings: high-density monolayers
Experimental: Cell Culture. Human Chondrosarcoma cell line (Ch-1) was isolated from a portion of chondrosarcoma tumor. The Ch-1 cell line was maintained in RPMI-1640 supplemented with 10% FBS and at 37° C. in a humidified, 5% CO2 atmosphere. Human chondrocytes were obtained from Dr. Davis Adkisson (ISTO Technologies, St. Louis) or isolated from macroscopically intact tissue obtained from total joint arthroplasty as described (Bassleer et al., 1998). HeLa 229 cells and MDA-MB 231 cell lines were provided by Dr. Kathy Weilbaecher (Washington University) and were cultured in RPMI medium supplemented with 10% FBS. HUVEC cells were a gift from Dr. William Frazier (Washington University) and were cultured in M199 Earle's medium with 10 units/ml of penicillin, 5 μg/ml streptomycin and 0.25 μg/ml Fungizone supplemented with 10% FBS, 0.1 mg/ml L-glutamine, 25 mM Hepes, 16 units/ml of heparin (Sigma) and 0.1 mg/ml endothelial cell mitogen (Biochemical Technologies).
as §1, with “Cells were cultured to confluence in a 24-well plate pre-coated with type I collagen, fibronectin (Sigma), and ECM Matrigel (Becton Dickinson). Proteins in serum-free medium were added to the cells.” left out

[2] = test system: mouse chondrogenic cells (ATDC5); test: Chondrogenic cell viability (trypan blue exclusion); assay type: cell-based; settings: 16 hours at 37° C.
Experimental: FIG. 10 depicts a graph showing mouse chondrogenic cells (ATDC5), mouse osteoblast cells, and mouse osteoclast cells treated with recombinant GST, PIIBNP or mPIIBNP proteins for 16 hours at 37° C. The cells were trypsinized and cell viability was assayed using a trypan blue exclusion based cell counting. PPIIBNP induced death in osteoclasts that resorb the bone, but not the osteoblasts that form bone.

β1, α4, and α5 integrin = test: Cell surface labeling and GST pull-down with immunoblotting (other integrins); assay type: binding, human; settings: b23: β1 only; b113: β1, α4 and α5
Experimental: Immunoblotting. Western blotting was performed as described (7). Blots were probed with the following primary antibodies: rabbit anti αV, α2, α3, α5, β1, β3, β5 integrin and goat anti actin (Saint Cruz), chicken anti PIIBNP antiserum, and mouse anti exon 2 antiserum.
Cell Surface labeling and GST Pull-down Assay. Ch-1 cells were incubated with EZ-link Sulfo-NHS-Biotin reagent for 30 mins. according to the product instruction (Sigma). After 3 washes with 0.1 M glycine in PBS, the cells were lysed with a lysis buffer described above. The lysate was incubated with glutathione derivatized agarose beads previously bound with GST, PIIANP, PIIBNP or mPIIBNP for 1 hr. at RT. […] The membrane was washed and incubated with antibodies and then incubated with a secondary antibody coupled to horseradish peroxidase. The antibody complex was visualized by enhanced chemiluminescence.

rings of rat aorta = test: Aortic ring formation assay
Experimental: FIG. 8 depicts a graph and photograph showing rat aortic ring formation. Angiogenesis was assayed by culturing rings of rat aorta in three-dimensional collagen gel. The culture was performed at 37° C. in a humidified environment for a week in the presence FGF and mPIIBNP or PIIBNP (0.1 to 3 mM). The microvessel outgrowth was examined and visualized every second day with an Olympus microscope. The pictures were taken before the measurement of the microvessels. (FIG. 8A) The length of microvessels was measured and total length for each measurement was added (FIG. 8B). PIIBNP inhibited aortic ring formation, with an IC50 of less than 0.1 μM.
Aortic Ring Formation Assay. Angiogenesis was assayed by culturing rings of rat aorta in three-dimensional collagen gels as reported. The cultures were kept at 37° C. in a humidified environment for a week in the presence of FGF and GST or PIIBNP (0.1-10 μM). The microvessel outgrowth was examined every second day with an Olympus microscope. The length of microvessels was measured and total length for each measurement was added.

[3] = test system: osteoclasts differentiated from Raw 264.7 cells, integrin αv siRNA treated; test: Osteoclast death after integrin αv siRNA; assay type: cell-based, mouse; settings: 16 hours
Experimental: FIG. 11 depicts a graph showing PIIBNP-induced osteoclast death. siRNA specifically targeted to integrin αv was purchased from San Cruz (San Cruz, Calif.). Raw 264.7 cells were differentiated into osteoclasts by treatment with 100 nM of s-RANKL. The integrin αv expression in the […] were suppressed by treatment of the cells with siRNA. Integrin αv suppressed osteoblasts were incubated with recombinant GST, PIIBNP or mPIIBNP for 16 hours. Cell viability was assayed by a trypan blue exclusion test as described in FIG. 3.

Which results are given for “PIIBNP: Recombinant human Type IIB procollagen NH2-propeptide (exons 3-8, lacking exon 2), expressed as GST fusion protein”?
induction of cell death in αV siRNA-treated Ch-1 cells (siRNA-treated Ch-1 cells): not able to induce cell death; also recorded: did not induce cell death; HUVEC cell death (HUVEC cells; 0.1 μM): no cell death; HUVEC cell death (HUVEC cells; 60 hrs, 37° C., higher concentrations): cell death was induced; also recorded: caused cell death in a concentration-dependent manner; induction of cell death in normal chondrocytes [1]: did not induce cell death; induction of ATDC5 cell death [2]: did not lead to the mouse chondrogenic cell (ATDC5) death; reaction of integrin antibodies with material pulled out by PIIBNP (β1, α4, and α5 integrin): did not react; inhibition of endothelial outgrowth from rat aorta (rings of rat aorta; freshly isolated rat aorta): able to inhibit endothelial outgrowth in a concentration dependent manner; IC50 (rings of rat aorta; three-dimensional collagen gel, FGF, a week, read-out: IC50 of inhibition of aortic ring formation): < 100 nM; PIIBNP-induced osteoclast death after integrin αv siRNA compared with control siRNA [3]: significantly reduced
